From BindingDB's records for doi:10.1021/jm400639z (Duquesne University, 2013)

Columns and labels:
[1] = Inhibition of p-gp overexpressed in human SKOV3/M6-6 isogenic cells after 48 hrs by sulforhodamine B assay
[2] = Inhibition of beta3 tubulin overexpressed in human HeLa cells after 48 hrs by SRB assay

Row | IC50 [1] | IC50 [2] | SMILES
1 | 16 nM | 8.2 nM | COc1ccc(N(C)c2nc(C)nc3c2CCC3)cc1
2 | 44 nM | 24 nM | COc1ccc(N(C)c2nc(C)nc3c2CC(C)C3)cc1 (stereo not given)

Row | SMILES | IC50 [1] | IC50 [2]
3 | COc1ccc(/C=C\c2cc(OC)c(OC)c(OC)c2)cc1O [combretastin A4] | 6.6 nM | 
